Data taken from patent US9856259B2, “Heterocyclic compounds and uses thereof” (Plexxikon Inc., priority 2014, dated 2018).

These compounds were tested against T1, BRD4-BD12 (Homo sapiens, UniProt O60885) (assay: Alphascreen binding assay, BRD4(1 2) H4). Conditions: BRD4 dual bromodomains with acetylated Histone 4 peptide, read-out: Biochemical activity (IC50 μM) BRD4(1 2) H4.
T1 construct: dual bromodomains (BRD4-BD12 (1-477), BRD4-BD12 (1-472)); six-His tag (N); made in house; host or cells: E. coli BL21-CodonPlus (DE3)
Method: Binding of compounds of formula (I) with bromodomain 2, 3 4 was assessed using Alphascreen binding assay. The inhibition of the interaction between bromodomain and its acetylated target protein (Filippakopoulos P et al. 2012) was measured quantitatively using recombinant BRD proteins, an acetylated Histone 4 peptide and AlphaScreen™ technology. In absence of inhibition the BRD protein bound to AlphaScreen™ nickel chelate acceptor beads can interact with the acetylated Histone 4 peptide which is immobilized by the AlphaScreen™ Streptavidin coated beads. This interaction brings donor and acceptor beads in proximity. The close proximity allows the singlet oxygen produced by laser excitation of the donor beads to reach the acceptor beads and generate a luminescence signal. BRD inhibitors result in a decrease in the proximity signal through an inhibition of the BRD acetylated peptide interaction.
Recombinant human bromodomains containing the N-terminal bromodomain (BRD2-BD1 (71-194), BRD3-BD1 (24-144) and BRD4-BD1 (44-164)) or dual bromodomains (BRD4-BD12 (1-477), BRD4-BD12 (1-472)) were prepared and purified as described in protein expression and purification session. The peptide is human Histone H41-21K5AcK8AcK12AcK16Ac-Biotin (Anaspec Calif., USA).
Protocol for BRD2, BRD3 and BRD4 assay: All components are prepared in buffer composed of 50 mM HEPES pH 7.5, 100 mM NaCl, 0.01% BSA, 0.01% Triton X-100, 2 mM DTT. 7 μL of Bromodomain protein and 7 μL of peptide are added to wells containing 1 μL of various concentrations of test compounds of formula (I) or DMSO vehicle in an Alphaplate (PerkinElmer Ga., USA) and incubated for 1 hour at room temperature. 4 μL donor and acceptor bead mixture is then added with final concentrations of 7.5 μg/ml. 30 minutes after bead addition, Alpha signal is read on the Envision spectrometer (λEx 680 nm, λEm 520-620 nm). Final concentrations of bromodomain proteins and peptide are as shown below.
All data was normalized to the mean of 16 high and 16 low control wells on each plate. A four parameter curve fit of the following formula was then applied: Y=a+(b−a)/(1+(x/c)^d) Where ‘a’ is the minimum, ‘b’ is the maximum, ‘c’ is the pIC50 and ‘d’ is the Hill slope. Protein Expression and Purification
Recombinant human bromodomains containing the N-terminal bromodomain (BRD2-BD1 (71-194), BRD3-BD1 (24-144) and BRD4-BD1 (44-164)) or dual bromodomains (BRD4-BD12 (1-477), BRD4-BD12 (1-472)) were expressed in E. coli cells (in a modified pET vector) with an N-terminal six-His tag and purified using a combination of both IMAC (Ni-affinity) and size exclusion chromatography steps.
Recombinant BRD proteins were expressed using the E. coli strain BL21-CodonPlus (DE3) (Agilent Technologies CA, USA). Cells were grown in Terrific Broth (TB) media to an OD600 of 1.2 at 37° C. at which temperature was reduced to 25° C., protein was induced with 1.0 mM IPTG for 12-18 hours and harvested by centrifugation at 8000×g for 20 minutes. Cells were re-suspended in 0.1M KPO4 pH 8.0, 250 mM NaCl, 10% Glycerol, 0.75% NP-40, 25 mM Imidazole, 5 mM BME with 0.2 mg/ml Lysosyme, 2.0 mM PMSF, 25 μg/ml DNAse I, incubated on ice for 30 minutes and lyzed with a cell disruptor (MicroFluidics MA, USA). The lysate was clarified by centrifugation at 20,000×g for 2 hours. The protein was captured with Ni-NTA resin (Life Technologies, USA). Contaminating proteins were washed off with 25 mM Tris-HCl pH 8.3, 250 mM NaCl, 12% Glycerol and 50 mM Imidazole. Following 3× wash steps, protein was eluted step wise using a 50 mM HEPES pH 7.5, 500 mM NaCl and 400 mM Imidazole. The protein was further purified using Gel Filtration column 26/600 Superdex 200 (GE Biosciences N.J., USA) in 50 mM HEPES pH 7.5, 250 mM NaCl. The protein was aliquoted and flash-frozen in liquid Nitrogen.

`Cc1noc(C)c1-c1cnc2c(I)cn([C@@H](C)c3ccccn3)c2n1` [Compound P-2056, 4-[7-iodo-5-[(1S)-1-(2-pyridyl)ethyl]pyrrolo[2,3-b]pyrazin-3-yl]-3,5-dimethyl-isoxazole] was tested. Which IC50 did it give?
Its IC50 is ≤ 1 µM.

These compounds were tested on MV-4-11 (assay: Oncology cell growth assay, MV-4-11 3 d growth). Conditions: Homo sapiens, MV4-11; MV-4-11 cells, 72 hours, CellTiter Glo; read-out: Cell activity (IC50 μM) MV-4-11 3 d-Growtb.
Assay type: cell-based
Method: (§1) In this study, we test compounds in different cancer cell lines. MV-4-11 and MOLM-13 are AML cell lines harboring a MLL-AF4 and MLL-AF9 translocation, respectively. MM.1S is a multiple myeloma cell line. SK—N-AS, IMR-32 and SK-N-BE(2) are neuroblastoma cell lines. IMR-32 and SK-N-BE(2) cell lines harbor MYCN amplifications.
(§2) MV-4-11, MM.1S, IMR-32, SK-N-AS and SK-N-BE(2) were obtained from ATCC (IL, USA) and MOLM-13 were purchased from DSMZ (Braunschweig, German). Cells are cultured as recommended by their sources. For growth inhibition studies 3000 cells are seeded in wells of a 96-well plate in 75 μL of culture media. After several hours, growth media containing compounds of formula (I) are added to the wells. Compound at a maximal concentration of 5 mM was serially diluted 1:3 for a total of 8 point titration with DMSO as a control. A 1 μL aliquot of each dilution point is added to 249 μL growth media and 75 μL is added to each well containing cells, providing 10 μM compound at the maximum concentration point. The final concentration of DMSO in all wells is 0.2%. Cells are incubated for 72 hours, and 25 μL of CellTiter Glo Reagent (Promega Ga., USA) is added to each well. Plates are shaken for approximately 10 minutes and chemiluminescent signal is read on Tecan microplate reader. The measured luminescence correlates directly with cell number.
(§3) All data is normalized to the mean of eight DMSO high control wells on each plate. A four parameter curve fit of the following formula was then applied: Y=a+(b−a)/(1+(x/c)^d) Where ‘a’ is the minimum, ‘b’ is the maximum, ‘c’ is the pIC50 and ‘d’ is the Hill slope. […] Myc Reporter Assay

With `Cc1noc(C)c1-c1cnc2c(I)cn([C@@H](C)c3ccccn3)c2n1` [Compound P-2056, 4-[7-iodo-5-[(1S)-1-(2-pyridyl)ethyl]pyrrolo[2,3-b]pyrazin-3-yl]-3,5-dimethyl-isoxazole] as the compound, how does the IC50 read?
The IC50 was ≤ 1 µM.

These compounds were tested on cancer cell lines / MV-4-11 Myc reporter cell line (assay: Bromodomain cell assays of Example 8 (at least one of them)). Conditions: Homo sapiens, MV4-11; at least one of the bromodomain cell assays described in Example 8.
Assay type: cell-based
Method: as §1, §2, §3
In MV-4-11 cells, BRD2, BRD3 and BRD4 bind to the promoter region of MYC and regulate its transcription (Dawson M A et al. 2011). The literature bromodomain inhibitor iBET 151 could disrupt BRD4 recruitment to the MYC promoter and subsequently downregulate c-myc transcription (Dawson M A et al. 2011). Myc protein is a transcription factor that heterodimerizes with an obligatory partner Max and regulates the transcription of genes important for cell proliferation, differentiation, and apoptosis. This Myc reporter assay is used to monitor the inhibitory effect of compound of formula (I) on Myc dependent gene expression. Effective compounds could have potential therapeutic effects in Myc-driven tumors.
The MV-4-11 Myc reporter cell line is established by infecting MV-4-11 with VSV-g pseudotyped lentivirus expressing the firefly luciferase gene under the control of a minimal (m) CMV promoter and tandem repeats of the E-box transcriptional response element (TRE) (Qiagen IL, USA) and selecting cells in 2.5 μg/ml Puromycin.
The MV-4-11 Myc reporter cell line is maintained in Iscove's Modified Dulbecco's Medium containing 10% FBS, 1% PenStep and 2.5 μg/ml Puromycin. Cells are incubated at 37° C. in a humidified atmosphere with 5% CO2. 25,000 cells are seeded in 96-well plate in 50 μL of culture media. After several hours, growth media containing 2× compounds are added to the wells. Compound at a maximal concentration of 5 mM is serially diluted 1:3 for a total of 8 point titration. A 1 μl aliquot of each dilution point is added to 249 μl growth media and 50 μl is added to each well containing cells, providing 10 μM compound at the maximum concentration point. DMSO treated cells serve as a high control and 10 μM JQ1 treated cells serve as a low control. Cells are incubated for a further 24 hours and 25 μL of CellTiter-Fluo Reagent (Promega Ga., USA) is added to each well. Plates are shaken for approximately 2 minutes and incubated at 37° C. for 0.5 hour. Fluorescence signal is read in a Tecan Plate reader (λex=400 nm, λcm=505 nm). 25 μL of One-Glo Reagent (Promega Ga., USA) is then added to the plates. Chemiluminescent signal is read on Tecan plate reader. Values from the wells with no cells are subtracted from all samples for background correction. […]

For `Cc1noc(C)c1-c1cnc2c(I)cn([C@@H](C)c3ccccn3)c2n1` [Compound P-2056, 4-[7-iodo-5-[(1S)-1-(2-pyridyl)ethyl]pyrrolo[2,3-b]pyrazin-3-yl]-3,5-dimethyl-isoxazole], which IC50 is on record?
The IC50 was < 10 µM.

`Cc1noc(C)c1-c1cnc2c(-c3ccc(C(=O)O)cc3)nn(C(c3ccccc3)c3ccccn3)c2c1` (centres unmarked) [Compound P-2096, 4-[6-(3,5-dimethylisoxazol-4-yl)-1-[phenyl(2-pyridyl)methyl]pyrazolo[4,3-b]pyridin-3-yl]benzoic acid] was tested. Which IC50 did it give?
Its IC50 is < 10 µM.

With `Cc1noc(C)c1-c1ccc2[nH]nc(Cc3ccccc3)c2c1` [Compound P-2035, 4-(3-benzyl-1H-indazol-5-yl)-3,5-dimethyl-isoxazole] as the compound, how does the IC50 read?
The IC50 was < 10 µM.

Which IC50 does the source give for `Cc1noc(C)c1-c1cnc2c(I)nn(C(c3ccccc3)c3ccccn3)c2c1` (centres unmarked) [Compound P-2095, 4-[3-iodo-1-[phenyl(2-pyridyl)methyl]pyrazolo[4,3-b]pyridin-6-yl]-3,5-dimethyl-isoxazole] here?
The IC50 was < 10 µM.

For `Cc1noc(C)c1-c1ccc2c(c1)c(Cc1ccccc1)nn2-c1ccc(C(=O)O)cc1F` [Compound P-2037, 4-[3-benzyl-5-(3,5-dimethylisoxazol-4-yl)indazol-1-yl]-3-fluoro-benzoic acid], which IC50 is on record?
The IC50 was < 10 µM.

How did the IC50 turn out when `Cc1noc(C)c1-c1cnc2c(I)nn([C@@H](C)c3ccccn3)c2c1` [Compound P-2091, 4-[3-iodo-1-[(1S)-1-(2-pyridyl)ethyl]pyrazolo[4,3-b]pyridin-6-yl]-3,5-dimethyl-isoxazole] was run?
Its IC50 is < 10 µM.

Which IC50 does the source give for `Cc1noc(C)c1-c1cnc2c(-c3ccc(CC(=O)O)cc3)nn(C(c3ccccc3)c3ccccn3)c2c1` (centres unmarked) [Compound P-2097, 2-[4-[6-(3,5-dimethylisoxazol-4-yl)-1-[phenyl(2-pyridyl)methyl]pyrazolo[4,3-b]pyridin-3-yl]phenyl]acetic acid] here?
Its IC50 is < 10 µM.

With `CCOC(=O)c1ccc(-n2nc(Cc3ccccc3)c3cc(-c4c(C)noc4C)cnc32)c(F)c1` [Compound P-2101, ethyl 4-[3-benzyl-5-(3,5-dimethylisoxazol-4-yl)pyrazolo[3,4-b]pyridin-1-yl]-3-fluoro-benzoate] as the compound, how does the IC50 read?
Its IC50 is < 10 µM.

How did the IC50 turn out when `Cc1noc(C)c1-c1cnc2c(-c3ccc(C(=O)O)cc3)nn([C@@H](C)c3ccccn3)c2c1` [Compound P-2093, 4-[6-(3,5-dimethylisoxazol-4-yl)-1-[(1S)-1-(2-pyridyl)ethyl]pyrazolo[4,3-b]pyridin-3-yl]benzoic acid] was run?
The IC50 was < 10 µM.

`CCOC(=O)c1ccc(-n2nc(Cc3ccccc3)c3cc(-c4c(C)noc4C)ccc32)c(F)c1` [Compound P-2036, ethyl 4-[3-benzyl-5-(3,5-dimethylisoxazol-4-yl)indazol-1-yl]-3-fluoro-benzoate] was tested. Which IC50 did it give?
The IC50 was < 10 µM.

For `Cc1noc(C)c1-c1cnc2[nH]nc(Cc3ccccc3)c2c1` [Compound P-2100, 4-(3-benzyl-1H-pyrazolo[3,4-b]pyridin-5-yl)-3,5-dimethyl-isoxazole], which IC50 is on record?
Its IC50 is < 10 µM.

For `Cc1noc(C)c1-c1cnc2c(-c3cnn(C)c3)nn([C@@H](C)c3ccccn3)c2c1` [Compound P-2099, 3,5-dimethyl-4-[3-(1-methylpyrazol-4-yl)-1-[(1S)-1-(2-pyridyl)ethyl]pyrazolo[4,3-b]pyridin-6-yl]isoxazole], which IC50 is on record?
The IC50 was < 10 µM.

`Cc1noc(C)c1-c1cnc2c(c1)c(Cc1ccccc1)nn2-c1ccc(C(=O)O)cc1F` [Compound P-2102, 4-[3-benzyl-5-(3,5-dimethylisoxazol-4-yl)pyrazolo[3,4-b]pyridin-1-yl]-3-fluoro-benzoic acid] was tested. Which IC50 did it give?
The IC50 was < 10 µM.

`Cc1noc(C)c1-c1cnc2c(-c3cnn(CC(F)(F)F)c3)nn([C@@H](C)c3ccccn3)c2c1` [Compound P-2098, 3,5-dimethyl-4-[1-[(1S)-1-(2-pyridyl)ethyl]-3-[1-(2,2,2-trifluoroethyl)pyrazol-4-yl]pyrazolo[4,3-b]pyridin-6-yl]isoxazole] was tested. Which IC50 did it give?
Its IC50 is < 10 µM.

For `Cc1noc(C)c1-c1cnc2c(-c3ccc(CC(=O)O)cc3)nn([C@@H](C)c3ccccn3)c2c1` [Compound P-2094, 2-[4-[6-(3,5-dimethylisoxazol-4-yl)-1-[(1S)-1-(2-pyridyl)ethyl]pyrazolo[4,3-b]pyridin-3-yl]phenyl]acetic acid], which IC50 is on record?
The IC50 was < 10 µM.
